Experimental data published in patent publication US12344610B2, “APOL1 inhibitors and methods of use” (Maze Therapeutics, Inc., priority 2022, dated 2025).

Legend:
[1] = tested on: HEK293 clonal cell line overexpressing APOL1 G1; test: APOL1 G1 HEK293 cell rescue assay (Example B3); assay type: cell-based; settings: Homo sapiens, HEK293, HEK293 clonal line overexpressing APOL1 G1; geometric mean of at least 2 runs; † = single run; ¥ = concentration at 50% rescue estimated (no sigmoidal curve)
In short: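 HEK293 clonal line overexpressing APOL1 G1; EC50 is half-maximal reversal of APOL1-induced cell death. Values are the geometric mean of ≥2 runs on separate days, each run the average of duplicate wells. Where no sigmoidal curve could be fitted, the concentration giving 50% rescue was estimated.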

APOL1 G2 = target: T1, APOL1 G2 (Homo sapiens, UniProt O14791, DEL388-389); test: APOL1-mediated calcium transport (calcium influx) assay, HEK T-REx/GCaMP6f/APOL1 G2 K6.3 cells, FLIPR TETRA; assay type: cell-based; settings: prevention of calcium influx; geometric mean of at least 2 assay runs; † = average of a technical replicate from a single assay run
T1 construct: expressed in transfected cells; host or cells: HEK293 T-REx clonal line stably expressing GCaMP6f (HEK T-REx/GCaMP6f/APOL1 G2 K6.3), doxycycline induced
T1 sequence (O14791 with tags, fused parts or gaps DEL388-389): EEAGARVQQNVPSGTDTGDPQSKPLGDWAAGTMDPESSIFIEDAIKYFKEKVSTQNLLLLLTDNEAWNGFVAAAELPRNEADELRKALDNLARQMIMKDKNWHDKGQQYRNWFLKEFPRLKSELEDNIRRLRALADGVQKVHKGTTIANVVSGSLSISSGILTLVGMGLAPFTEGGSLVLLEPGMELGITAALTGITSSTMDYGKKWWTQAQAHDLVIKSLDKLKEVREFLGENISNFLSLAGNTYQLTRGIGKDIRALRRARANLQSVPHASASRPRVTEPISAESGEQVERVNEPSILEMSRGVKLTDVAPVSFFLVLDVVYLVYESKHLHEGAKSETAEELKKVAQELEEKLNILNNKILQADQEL
In short: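 A HEK293 T-REx clone stably expressing GCaMP6f had APOL1 G2 induced with doxycycline (20 ng/mL solution added) for 6 h. Cells were then washed into Ca2+-free Tyrode's buffer (pH 7.4) and preincubated with compounds (duplicate 8-point) for 10 min at room temperature. Ca2+ injection to 5 mM final produced FLIPR GCaMP fluorescence, giving AC50 for influx inhibition (geometric mean, ≥2 runs).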

Compound	EC50 [1]	AC50 (APOL1 G2)
CN1C(=O)CCc2cc(OCCN3CCC4(CC3)C(=O)Nc3ccc(C#N)cc34)ccc21 [Compound 95, 1′-{2-[(1-methyl-2-oxo-1,2,3,4-tetrahydroquinolin-6-yl)oxy]ethyl}-2-oxo-1,2-dihydrospiro[indole-3,4′-piperidine]-5-carbonitrile]	457 nM	655 nM
CS(=O)(=O)N1CCc2cc(OCCN3CCC4(CC3)C(=O)Nc3ccc(Cl)cc34)ccc2C1 [Compound 94, 5-chloro-1′-{2-[(2-methanesulfonyl-1,2,3,4-tetrahydroisoquinolin-6-yl)oxy]ethyl}-1,2-dihydrospiro[indole-3,4′-piperidin]-2-one]	210 nM	794 nM
O=C1CCc2cc(OCCN3CCC4(CC3)C(=O)Nc3ccc(Cl)cc34)ccc2N1 [Compound 82, 5-chloro-1′-{2-[(2-oxo-1,2,3,4-tetrahydroquinolin-6-yl)oxy]ethyl}-1,2-dihydrospiro[indole-3,4′-piperidin]-2-one]	252 nM	1050 nM
